Assay results reported in US5191079A, “Quinolinecarboxylic acid derivatives” (priority 1990, dated 1993).
≈ marks a conversion by molar mass, not a printed value.

Key:
Type in all cases: cell-based
[1] = tested on: clinically isolated Staphylococcus epidermidis; assay: In vitro antibacterial activity against clinical isolates, Experiment 2; conditions: Staphylococcus epidermidis, 25 clinical strains S. epidermidis; for MIC50: 50% of strains, read-out: MIC50; for MIC90: 90% of strains, read-out: MIC90
Experimental: The above solutions were then diluted with sterilized distilled water to prepare a standard solution with a concentration of the test compound: 1000 μg/ml each.
For the preculture of each microorganism, there was used as the medium a sensitivity test broth (manufactured by Nissui Seiyaku K. K., Japan), and for the measurement of MIC, there was used a sensitivity test agar medium (manufactured by Nissui Seiyaku K. K.).
The clinically isolates used above were isolated from Nov. 1988 to Jun. 1989 and were obtained from Research Section, Tokyo Clinical Research Center.

[2] = tested on: Bacillus subtilis ATCC 6633; assay: MIC, Experiment 1; conditions: ATCC6633, B. subtilis ATCC 6633, Gram +, read-out: Min. inhib. concentr. (MIC)
Experimental: (§1) The compounds of the present invention (B, E, G, H, M, N, O, P and Q) were each dissolved in dimethylsulfoxide to prepare a solution of 5000 μg/ml in concentration. The compounds of the present invention (I, J and K) and the known compound (Y) were each dissolved in sterilized distilled water to prepare a solution of 5000 μg/ml in concentration. Each solution was diluted with sterilized distilled water to prepare a standard solution with a concentration of each test compound: 1000 μg/ml. The test was carried out by a method as appointed by Japan Society of Chemotherapy [cf. Chemotherapy, 29, 76-79 (1981), TOKYO].
(§2) As to Streptococcus pneumoniae and Streptococcus pyogenes, Brain heart infusion broth (manufactured by DIFCO) was used as the medium for the preculture thereof, and a heart infusion agar medium containing 5% defibrinated horse blood (manufactured by Nissui Seiyaku K. K., Japan) was used as the medium for the measurement of minimum inhibitory concentration (MIC). As to other microorganisms, a sensitivity test broth (manufactured by Nissui Seiyaku K. K.) was used as the medium for the preculture thereof, and a sensitivity test agar medium (manufactured by Nissui Seiyaku K. K.) was used as the medium for the measurement of MIC.

[3] = tested on: Staphylococcus aureus IID 803; assay: MIC, Experiment 1; conditions: IID803, S. aureus IID 803, Gram +, read-out: Min. inhib. concentr. (MIC)
Experimental: as §1, §2

Enterobacter cloacae 963 = assay: MIC, Experiment 1; conditions: E. cloacae 963, Gram -, read-out: Min. inhib. concentr. (MIC)
Experimental: as §1, §2

[4] = tested on: Escherichia coli NIHJ JC-2; assay: MIC, Experiment 1; conditions: NIHJJC2, E. coli NIHJ JC-2, Gram -, read-out: Min. inhib. concentr. (MIC)
Experimental: as §1, §2

[5] = tested on: Streptococcus pneumoniae IID 552; assay: MIC, Experiment 1; conditions: IID552, S. pneumoniae IID 552, Gram +, agar with 5% defibrinated horse blood, read-out: Min. inhib. concentr. (MIC)
Experimental: as §1, §2

[6] = tested on: Proteus mirabilis IFO 3849; assay: MIC, Experiment 1; conditions: IFO3849, P. mirabilis IFO 3849, Gram -, read-out: Min. inhib. concentr. (MIC)
Experimental: as §1, §2

[7] = tested on: Acinetobacter calcoaceticus Ac 54; assay: MIC, Experiment 1; conditions: AC54, A. calcoaceticus Ac 54, Gram -, read-out: Min. inhib. concentr. (MIC)
Experimental: as §1, §2

[8] = tested on: Staphylococcus aureus FDA 209P JC-1; assay: MIC, Experiment 1; conditions: FDA209P, S. aureus FDA 209P JC-1, Gram +, read-out: Min. inhib. concentr. (MIC)
Experimental: as §1, §2

[9] = tested on: Staphylococcus aureus Cowan I (IID 975); assay: MIC, Experiment 1; conditions: IID975, S. aureus Cowan I (IID 975), Gram +, read-out: Min. inhib. concentr. (MIC)
Experimental: as §1, §2

[10] = tested on: Staphylococcus aureus FDA 243; assay: MIC, Experiment 1; conditions: FDA243, S. aureus FDA 243, Gram +, read-out: Min. inhib. concentr. (MIC)
Experimental: as §1, §2

[11] = tested on: Staphylococcus aureus MS-353; assay: MIC, Experiment 1; conditions: MS353, S. aureus MS-353, Gram +, read-out: Min. inhib. concentr. (MIC)
Experimental: as §1, §2

[12] = tested on: Micrococcus luteus ATCC 9341; assay: MIC, Experiment 1; conditions: ATCC9341, M. luteus ATCC 9341, Gram +, read-out: Min. inhib. concentr. (MIC)
Experimental: as §1, §2

[13] = tested on: Staphylococcus aureus ATCC 9144; assay: MIC, Experiment 1; conditions: ATCC9144, S. aureus ATCC 9144, Gram +, read-out: Min. inhib. concentr. (MIC)
Experimental: as §1, §2

[14] = tested on: Klebsiella pneumoniae PCI-602; assay: MIC, Experiment 1; conditions: PCI602, K. pneumoniae PCI-602, Gram -, read-out: Min. inhib. concentr. (MIC)
Experimental: as §1, §2

[15] = tested on: Pseudomonas aeruginosa NCTC 10490; assay: MIC, Experiment 1; conditions: NCTC10490, P. aeruginosa NCTC 10490, Gram -, read-out: Min. inhib. concentr. (MIC)
Experimental: as §1, §2

[16] = tested on: Streptococcus pneumoniae IID 554; assay: MIC, Experiment 1; conditions: IID554, S. pneumoniae IID 554, Gram +, agar with 5% defibrinated horse blood, read-out: Min. inhib. concentr. (MIC)
Experimental: as §1, §2

Bacillus cereus IAM 1029 = assay: MIC, Experiment 1; conditions: IAM1029, B. cereus IAM 1029, Gram +, read-out: Min. inhib. concentr. (MIC)
Experimental: as §1, §2

[17] = tested on: Streptococcus pyogenes Su; assay: MIC, Experiment 1; conditions: S. pyogenes Su, Gram +, agar with 5% defibrinated horse blood, read-out: Min. inhib. concentr. (MIC)
Experimental: as §1, §2

[18] = tested on: Streptococcus pyogenes Cook; assay: MIC, Experiment 1; conditions: S. pyogenes Cook, Gram +, agar with 5% defibrinated horse blood, read-out: Min. inhib. concentr. (MIC)
Experimental: as §1, §2

[19] = tested on: Streptococcus pyogenes Sv; assay: MIC, Experiment 1; conditions: S. pyogenes Sv, Gram +, agar with 5% defibrinated horse blood, read-out: Min. inhib. concentr. (MIC)
Experimental: as §1, §2

[20] = tested on: Staphylococcus aureus Terajima (IID 670); assay: MIC, Experiment 1; conditions: IID670, S. aureus Terajima (IID 670), Gram +, read-out: Min. inhib. concentr. (MIC)
Experimental: as §1, §2

Row | SMILES | MIC [1] | MIC50 [1] | MIC90 [1] | MIC [2] | MIC [3] | MIC (Enterobacter cloacae 963) | MIC [4] | MIC [5] | MIC [6] | MIC [7] | MIC [8] | MIC [9] | MIC [10] | MIC [11] | MIC [12] | MIC [13] | MIC [14] | MIC [15] | MIC [16] | MIC (Bacillus cereus IAM 1029) | also measured
1 | CN1Cc2csc3c(C(=O)O)c(=O)c4cc(F)c(N5CCC(O)CC5)c1c4n23 [Compound (L), 9,1-(Methylimino)methano-7-fluoro-8-(4-hydroxypiperidino)-5-oxo-5H-thiazolo[3,2-a]quinoline-4-carboxylic acid] | 0.006 to 0.39 µg/mL (≈ 0.0149 to 0.967 µM) | 0.013 µg/mL (≈ 0.0322 µM) | 0.39 µg/mL (≈ 0.967 µM) | ≤ 0.006 µg/mL | ≤ 0.006 µg/mL | 0.2 µg/mL (≈ 0.496 µM) | 0.1 µg/mL (≈ 0.248 µM) | 0.013 µg/mL (≈ 0.0322 µM) | 0.2 µg/mL (≈ 0.496 µM) | ≤ 0.006 µg/mL | 0.013 µg/mL (≈ 0.0322 µM) | ≤ 0.006 µg/mL | ≤ 0.006 µg/mL | 0.013 µg/mL (≈ 0.0322 µM) | 0.1 µg/mL (≈ 0.248 µM) | ≤ 0.006 µg/mL | ≤ 0.006 µg/mL | 0.39 µg/mL (≈ 0.967 µM) | 0.05 µg/mL (≈ 0.124 µM) | 0.013 µg/mL (≈ 0.0322 µM) | MIC [17]: 0.025 µg/mL (≈ 0.062 µM); MIC [18]: 0.025 µg/mL (≈ 0.062 µM); MIC [19]: 0.025 µg/mL (≈ 0.062 µM); MIC [20]: 0.013 µg/mL (≈ 0.0322 µM)
2 | CN1Cc2csc3c(C(=O)O)c(=O)c4cc(F)c(N5CCC(N(C)C)CC5)c1c4n23 [Compound (H), 9,1-(methylimino)methano-7-fluoro-8-(4-dimethylaminopiperidino)-5-oxo-5H-thiazolo[3,2-a]quinoline-4-carboxylic acid] | 0.05 to 3.13 µg/mL (≈ 0.116 to 7.27 µM) | 0.05 µg/mL (≈ 0.116 µM) | 3.13 µg/mL (≈ 7.27 µM) | 0.05 µg/mL (≈ 0.116 µM) | 0.1 µg/mL (≈ 0.232 µM) | 0.39 µg/mL (≈ 0.906 µM) | 0.2 µg/mL (≈ 0.465 µM) | 0.05 µg/mL (≈ 0.116 µM) | 0.78 µg/mL (≈ 1.81 µM) | 0.1 µg/mL (≈ 0.232 µM) | 0.1 µg/mL (≈ 0.232 µM) | 0.05 µg/mL (≈ 0.116 µM) | 0.05 µg/mL (≈ 0.116 µM) | 0.1 µg/mL (≈ 0.232 µM) | 0.39 µg/mL (≈ 0.906 µM) | 0.05 µg/mL (≈ 0.116 µM) | 0.025 µg/mL (≈ 0.0581 µM) | 0.78 µg/mL (≈ 1.81 µM) | 0.05 µg/mL (≈ 0.116 µM) | 0.05 µg/mL (≈ 0.116 µM) | MIC [17]: 0.05 µg/mL (≈ 0.116 µM); MIC [18]: 0.05 µg/mL (≈ 0.116 µM); MIC [19]: 0.05 µg/mL (≈ 0.116 µM); MIC [20]: 0.05 µg/mL (≈ 0.116 µM)
3 | CN1Cc2csc3c(C(=O)O)c(=O)c4cc(F)c(N5CCOC(CCl)C5)c1c4n23 (stereo not drawn) [Compound (D), 9,1-(Methylimino)methano-7-fluoro-8-(2-chloromethylmorpholino)-5-oxo-5H-thiazolo[3,2-a]quinoline-4-carboxylic acid] | 0.006 to 0.39 µg/mL (≈ 0.0137 to 0.891 µM) | 0.013 µg/mL (≈ 0.0297 µM) | 0.2 µg/mL (≈ 0.457 µM) | ≤ 0.006 µg/mL | ≤ 0.006 µg/mL | 0.39 µg/mL (≈ 0.891 µM) | 0.2 µg/mL (≈ 0.457 µM) | 0.05 µg/mL (≈ 0.114 µM) | 0.39 µg/mL (≈ 0.891 µM) | ≤ 0.006 µg/mL | 0.013 µg/mL (≈ 0.0297 µM) | 0.013 µg/mL (≈ 0.0297 µM) | ≤ 0.006 µg/mL | 0.013 µg/mL (≈ 0.0297 µM) | 0.05 µg/mL (≈ 0.114 µM) | 0.013 µg/mL (≈ 0.0297 µM) | 0.025 µg/mL (≈ 0.0571 µM) | 0.39 µg/mL (≈ 0.891 µM) | 0.05 µg/mL (≈ 0.114 µM) | 0.025 µg/mL (≈ 0.0571 µM) | MIC [17]: 0.025 µg/mL (≈ 0.0571 µM); MIC [18]: 0.05 µg/mL (≈ 0.114 µM); MIC [19]: 0.05 µg/mL (≈ 0.114 µM); MIC [20]: 0.025 µg/mL (≈ 0.0571 µM)
